According to patent US12552747B2, “Amino acid derivative containing non-steroidal anti-inflammatory drug structure and preparation method and application thereof” (priority 2020, dated 2026):
Marks after values point to notes of the source that are not given here.

Columns and labels:
Lung cancer A549 cells = assay: In vitro antitumor activity test (MTT), A549; format: cell-based; details: Homo sapiens, 24 h
Procedure: (§1) 13 human tumor cell lines were selected and cultured in RPMI-1640 medium (Gibco company) containing 10% inactivated fetal bovine serum, 100 U/ml penicillin and 100 U/ml streptomycin, cultured at 37° C. in a 5% CO2 incubator, and passaged once every 2 days. Using the MTT method, cells in the logarithmic growth phase were digested with 0.25% trypsin, centrifuged at 1000 r/min for 5 min, 8×10^3 cells were added to each well, and seeded in a 96-well plate, and 180 μl of cell suspension was added to each well, and a blank was set at the same time. The 96-well plate inoculated with tumor cells was placed in a carbon dioxide incubator for 24 hours, and then 20 μl of the drug was added, and an equal volume of culture medium was added to the blank control well, and the drug was divided into 8 concentrations from 50 μg/L to 0.4 μg/L. Three duplicate wells were set for each drug concentration and placed in an incubator for 24 h. 10 μl of MTT solution (5 mg/ml) was added to each well, and the culture was continued for 4 h. The supernatant was aspirated and discarded, 100 μl of dimethyl sulfoxide (DMSO) solution was added to each well, placed on a micro shaker for 10 min, and the absorbance (A value) was measured at a wavelength of 492 nm in a microplate reader, and the inhibition rate of the drug on tumor cells was calculated according to the following formula.
(§2) In this test, the IC50 value of the compound on tumor cells was calculated by the Origin software according to the inhibition rate of the compound. AC-201 in the following table was the abbreviation of PL-AC-201, and so on.

[1] = tested on: 13 human tumor cell lines; assay: Average IC50 over the tumor cell lines (MTT); format: cell-based; details: mean IC50 for each tumor, read-out: AverageIC50
Procedure: as §1, §2
The ratio of the hemolytic concentration MHC of the compound to the mean IC50 for each tumor was referred to as the therapeutic index (TI). The safety of the compound was evaluated by the therapeutic index. The higher the therapeutic index, the greater the safety range of the compound.

SK-hep1 liver tumors = assay: Transplanted tumor in nude mice, intraperitoneal, SK-hep1; format: in vivo, BALB/c nude mice; details: 8 administrations; for Tumor inhibition rate / Tumor weight: SK-hep1, 5 mg/kg i.p. once every 3 days; for Body Weight After administration: SK-hep1 tumor-bearing BALB/c mice, 5 mg/kg i.p. once every 3 days
Procedure: (§3) BALB/c nude mice were used to inoculate Bel-7402, HepG-2 and SK-hep1 liver tumors according to the transplanted tumor research method under aseptic operation, and the cell density was not less than 5×10^6/ml, 0.2 ml was inoculated subcutaneously in the axilla of the right hind limb of each mouse. After the cells were inoculated, the cells were administered intraperitoneally (concentration: 5 mg/kg), once every 3 days, for a total of 8 administrations. After the 2nd day of drug withdrawal, all tumor-bearing mice were sacrificed, and their body weight, tumor weight and tumor inhibition were weighed.

HepG-2 liver tumors = assay: Transplanted tumor in nude mice, intraperitoneal, HepG-2; format: in vivo, BALB/c nude mice; details: 8 administrations; for Tumor inhibition rate / Tumor weight: HepG-2, 5 mg/kg i.p. once every 3 days; for Body Weight After administration: HepG-2 tumor-bearing BALB/c mice, 5 mg/kg i.p. once every 3 days
Procedure: as §3

human red blood cells = assay: Detection of hemolytic activity; format: cell-based
Procedure: 2-3 ml of human blood was drawn using an anticoagulant tube, thoroughly mixed, and kept at 4° C. for later use. 2 ml of blood was aspirated and added with 2-3 ml of PBS, followed by gently pipetting and centrifugation for 5 min at 1000 rpm, which was repeated 3-4 times. After the last centrifugation, PBS was aspirated, PBS was added to 40 ml (20 times the volume), and the number of blood cells at this time was 2×10^8 cells/ml. The red blood cell suspension was added to the plate (U-shaped 96-well plate), and 70 μl/well was used as a negative well. Only PBS was added to blank wells, 140 μl/well. 2 ml of the red blood cell suspension was centrifuged, PBS was discarded, 2 ml of pure water was added, mixed well, and 140 μl/well was used as a positive well. The diluted polypeptide solutions of different concentrations were added to the plate, 70 μl/well. Incubated at 37° C., 87 rpm, shaken for 2h, centrifuged for 5 min at 3000 rpm. The OD value measured by microplate reader: After centrifugation, 90 μl of supernatant was drawn and transferred to a flat-bottom 96-well plate, and the OD value at 578 nm was measured by microplate reader. ODtest-OD negative >0.1 (the first concentration that met the conditions was MHC).

[2] = tested on: Cervical cancer Hela cells; assay: In vitro antitumor activity test (MTT), Hela; format: cell-based; details: Homo sapiens, 24 h
Procedure: as §1, §2

Lung cancer H1299 cells = assay: In vitro antitumor activity test (MTT), H1299; format: cell-based; details: Homo sapiens, NCI-H1299, 24 h
Procedure: as §1, §2

[3] = tested on: Pancreatic cancer Bxpc-3 cells; assay: In vitro antitumor activity test (MTT), Bxpc-3; format: cell-based; details: Homo sapiens; Pancreatic cancer Bxpc-3, MTT, 24 h
Procedure: as §1, §2

[4] = tested on: Human osteosarcoma MG63 cells; assay: In vitro antitumor activity test (MTT), MG63; format: cell-based; details: MG-63, 24 h
Procedure: as §1, §2

Lung cancer H460 cells = assay: In vitro antitumor activity test (MTT), H460; format: cell-based; details: Homo sapiens, NCI-H460, 24 h
Procedure: as §1, §2

[5] = tested on: Breast cancer MCF-7 cells; assay: In vitro antitumor activity test (MTT), MCF-7; format: cell-based; details: Homo sapiens, MCF7; Breast cancer MCF-7, MTT, 24 h
Procedure: as §1, §2

Bel-7402 liver tumors = assay: Transplanted tumor in nude mice, intraperitoneal, Bel-7402; format: in vivo, BALB/c nude mice; details: 8 administrations; for Tumor inhibition rate / Tumor weight: Bel-7402, 5 mg/kg i.p. once every 3 days; for Body Weight After administration: Bel-7402 tumor-bearing BALB/c mice, 5 mg/kg i.p. once every 3 days
Procedure: as §3

Lung cancer H292 cells = assay: In vitro antitumor activity test (MTT), H292; format: cell-based; details: Homo sapiens, NCI-H292, 24 h
Procedure: as §1, §2

[6] = tested on: Liver cancer HepG-2 cells; assay: In vitro antitumor activity test (MTT), HepG-2; format: cell-based; details: Homo sapiens, HepG2; Liver cancer HepG-2, MTT, 24 h
Procedure: as §1, §2

[7] = tested on: Liver cancer SK-hep1 cells; assay: In vitro antitumor activity test (MTT), SK-hep1; format: cell-based; details: Homo sapiens, 24 h
Procedure: as §1, §2

[8] = Acute toxicity test of single administration to ICR mice; details: mouse, in vivo, intravenous, single tail vein injection, observed 7 days
Procedure: ICR mice, 18-22 g, were raised in a common-grade animal room, fed with common feed, and ingested freely. The group distance and dose were determined after exploring the Dm and Dn of the compounds of the examples. Five concentrations of the compounds of the examples were formulated at the desired dose. The corresponding doses of drugs were injected into the tail vein according to body weight, and the blank control group was injected with normal saline. Immediately after administration, the performance and death of each animal were observed and recorded, and the possible toxic reaction or death of animals within 7 days after a single administration was observed and recorded.

Melanoma B16 cells = assay: In vitro antitumor activity test (MTT), B16; format: cell-based; details: 24 h
Procedure: as §1, §2

[9] = tested on: Liver cancer Bel-7402 cells; assay: In vitro antitumor activity test (MTT), Bel-7402; format: cell-based; details: Homo sapiens; Liver cancer Bel-7402, MTT, 24 h
Procedure: as §1, §2

Colon cancer HT29 cells = assay: In vitro antitumor activity test (MTT), HT29; format: cell-based; details: Homo sapiens, HT-29, 24 h
Procedure: as §1, §2

[10] = human red blood cells, 37° C., 2h, first concentration with ODtest-OD negative >0.1

Row | Structure (SMILES) | IC50 (Lung cancer A549 cells) [µM] | IC50 [1] [µM] | Tumor inhibition rate (HepG-2 liver tumors) | Tumor weight (HepG-2 liver tumors) [mg] | Body Weight After administration (HepG-2 liver tumors) [g] | MHC (human red blood cells; hemolytic concentration, in nM) [nM] | MHC (human red blood cells; [10]) [µg/mL] | IC50 [2] [µM] | IC50 (Lung cancer H1299 cells) [µM] | IC50 [3] [µM] | IC50 [4] [µM] | IC50 (Lung cancer H460 cells) [µM] | IC50 [5] [µM] | IC50 (Lung cancer H292 cells) [µM] | IC50 [6] [µM] | IC50 [7] [µM] | LD50 at 7 days [8] [mg/kg] | IC50 (Melanoma B16 cells) [µM] | IC50 [9] [µM] | IC50 (Colon cancer HT29 cells) [µM] | further results
1 | CC(=O)Oc1ccccc1C(=O)NC(Cc1ccc(-c2ccccc2)cc1)C(=O)NC1CC(C)(C)NC(C)(C)C1 (stereo not drawn) [PL-AC-201] | 0.0299 | 0.0282 | 69.3** % | 506.9 ± 9.4 | 22.9 ± 1.4 | 5.8e+06 | 3000 | 0.0195 | 0.0237 | 0.0521 | 0.0248 | 0.0219 | 0.0243 | 0.0223 | 0.0161 | 0.0162 | 27.2 | 0.0298 | 0.0502 | 0.0359 | Tumor inhibition rate (SK-hep1 liver tumors): 61.2** %; Tumor weight (SK-hep1 liver tumors): 434.7 ± 9.4 mg; Body Weight After administration (SK-hep1 liver tumors): 23.7 ± 1 g; Tumor inhibition rate (Bel-7402 liver tumors): ^ΔΔ66.2** %; Tumor weight (Bel-7402 liver tumors): 268.1 ± 9.6 mg; Body Weight After administration (Bel-7402 liver tumors): 23.2 ± 1.0 g
2 | COc1ccc2cc(C(C)C(=O)NC(Cc3ccc(-c4ccccc4)cc3)C(=O)NC3CC(C)(C)NC(C)(C)C3)ccc2c1 (stereo not drawn) [PL-AC-202] | 0.0232 | 0.024 | ^ΔΔ75.4** % | 406.2 ± 5.9 | 22.8 ± 0.8 | 5.1e+06 | 3000 | 0.0161 | 0.0198 | 0.0351 | 0.0241 | 0.0185 | 0.0211 | 0.0201 | 0.0158 | 0.0115 | 34.8 | 0.0284 | 0.0456 | 0.0325 | Tumor inhibition rate (SK-hep1 liver tumors): ^ΔΔ71.7** %; Tumor weight (SK-hep1 liver tumors): 317.1 ± 8.7 mg; Body Weight After administration (SK-hep1 liver tumors): 24.9 ± 1.0 g; Tumor inhibition rate (Bel-7402 liver tumors): ^ΔΔ73.1** %; Tumor weight (Bel-7402 liver tumors): 213.3 ± 9.3 mg; Body Weight After administration (Bel-7402 liver tumors): 22.9 ± 1.1 g
3 | C/C(=C1/c2ccc(F)cc2C(CC(=O)NC(Cc2ccc(-c3ccccc3)cc2)C(=O)NC2CC(C)(C)NC(C)(C)C2)C1C)c1ccc([S+](C)[O-])cc1 (stereo not drawn) [PL-AC-204] | 0.0298 | 0.0281 | 65.1** % | 576.3 ± 10.7 | 23.1 ± 1.0 | 4.1e+06 | 3000 | 0.0192 | 0.0216 | 0.0494 | 0.0245 | 0.0216 | 0.0231 | 0.0276 | 0.0159 | 0.0236 | 29.9 | 0.0305 | 0.0407 | 0.0374 | –
